Measurements: PubChem BioAssay AID1259407 (Chemical Carcinogenesis Research Information System (CCRIS), 2018)
Active and inactive are the calls of the source. The rule behind the calls is not given here.

Tested on: CCRIS mutagenicity, Ames/micronucleus/aberration tests
Test: CCRIS mutagenicity studies
[1] = Test System: AMES SALMONELLA TYPHIMURIUM, Strain/Indicator: TA100, Metabolic Activation: NONE, Method: STANDARD PLATE
[2] = Test System: AMES SALMONELLA TYPHIMURIUM, Strain/Indicator: TA98, Metabolic Activation: NONE, Method: STANDARD PLATE
[3] = Test System: AMES SALMONELLA TYPHIMURIUM, Strain/Indicator: TA98, Metabolic Activation: RAT, LIVER, S-9, AROCLOR 1254, Method: STANDARD PLATE
[4] = Test System: AMES SALMONELLA TYPHIMURIUM, Strain/Indicator: TA100, Metabolic Activation: RAT, LIVER, S-9, AROCLOR 1254, Method: STANDARD PLATE
[5] = Test System: AMES SALMONELLA TYPHIMURIUM, Strain/Indicator: TA1538, Metabolic Activation: NONE, Method: STANDARD PLATE
[6] = Test System: AMES SALMONELLA TYPHIMURIUM, Strain/Indicator: TA1538, Metabolic Activation: RAT, LIVER, S-9, AROCLOR 1254, Method: STANDARD PLATE
[7] = Test System: AMES SALMONELLA TYPHIMURIUM, Strain/Indicator: TA98, Metabolic Activation: NONE, Method: PREINCUBATION
[8] = Test System: AMES SALMONELLA TYPHIMURIUM, Strain/Indicator: TA100, Metabolic Activation: NONE, Method: PREINCUBATION
[9] = Test System: AMES SALMONELLA TYPHIMURIUM, Strain/Indicator: TA102, Metabolic Activation: NONE, Method: STANDARD PLATE

Compound: COc1ccc(-c2oc3ccccc3c(=O)c2[N+](=O)[O-])cc1[N+](=O)[O-]
- mutagenic call (Test System: AMES SALMONELLA TYPHIMURIUM, Strain/Indicator: TA100, Metabolic Activation: RAT LIVER S-9, AROCLOR 1254, Method: STANDARD PLATE): active; positive
- mutagenic call (Test System: AMES SALMONELLA TYPHIMURIUM, Strain/Indicator: YG1042, Metabolic Activation: RAT LIVER S-9, AROCLOR 1254, Method: STANDARD PLATE): active; positive

Compound: Cc1ccccc1O
- mutagenic call (Test System: Ames Salmonella typhimurium, Strain/Indicator: TA98, Metabolic Activation: Hamster, Liver, S-9, Aroclor 1254 (10%), Method: Preincubation): inactive; negative
- mutagenic call (Test System: Ames Salmonella typhimurium, Strain/Indicator: TA98, Metabolic Activation: None, Method: Preincubation): inactive; negative
- mutagenic call (Test System: Ames Salmonella typhimurium, Strain/Indicator: TA98, Metabolic Activation: Rat, Liver, S-9, Aroclor 1254 (10%), Method: Preincubation): inactive; negative
- mutagenic call (Test System: Ames Salmonella typhimurium, Strain/Indicator: TA100, Metabolic Activation: Hamster, Liver, S-9, Aroclor 1254 (10%), Method: Preincubation): inactive; negative
- mutagenic call (Test System: Ames Salmonella typhimurium, Strain/Indicator: TA100, Metabolic Activation: None, Method: Preincubation): inactive; negative
- mutagenic call (Test System: Ames Salmonella typhimurium, Strain/Indicator: TA100, Metabolic Activation: Rat, Liver, S-9, Aroclor 1254 (10%), Method: Preincubation): inactive; negative
- mutagenic call (Test System: Ames Salmonella typhimurium, Strain/Indicator: TA1535, Metabolic Activation: Hamster, Liver, S-9, Aroclor 1254 (10%), Method: Preincubation): inactive; negative
- mutagenic call (Test System: Ames Salmonella typhimurium, Strain/Indicator: TA1535, Metabolic Activation: None, Method: Preincubation): inactive; negative
- mutagenic call (Test System: Ames Salmonella typhimurium, Strain/Indicator: TA1535, Metabolic Activation: Rat, Liver, S-9, Aroclor 1254 (10%), Method: Preincubation): inactive; negative
- mutagenic call (Test System: Ames Salmonella typhimurium, Strain/Indicator: TA1537, Metabolic Activation: Hamster, Liver, S-9, Aroclor 1254 (10%), Method: Preincubation): inactive; negative
- mutagenic call (Test System: Ames Salmonella typhimurium, Strain/Indicator: TA1537, Metabolic Activation: None, Method: Preincubation): inactive; negative
- mutagenic call (Test System: Ames Salmonella typhimurium, Strain/Indicator: TA1537, Metabolic Activation: Rat, Liver, S-9, Aroclor 1254 (10%), Method: Preincubation): inactive; negative

Compound: CCCCOc1c(C(=O)NOC(C)=O)cccc1[N+](=O)[O-]
- mutagenic call [1]: inactive; negative
- mutagenic call (Test System: AMES SALMONELLA TYPHIMURIUM, Strain/Indicator: TA100, Metabolic Activation: RAT, S-9, AROCLOR, Method: STANDARD PLATE): active; positive

Compound: CCCOc1cc(N=Nc2ccc(N(CCO)CCO)cc2)ccc1N=Nc1c(S(=O)(=O)O)cc2ccc(N)cc2c1O
- mutagenic call [2]: inactive; negative
- mutagenic call [3]: active; positive
- mutagenic call [1]: inactive; negative
- mutagenic call [4]: inactive; negative
- mutagenic call [5]: inactive; negative
- mutagenic call [6]: active; positive

Compound: OC1CC=Cc2c1cc1ccc3cccc4ccc2c1c34 (stereo unspecified)
- mutagenic call [3]: active; positive

Compound: Cc1nc2ccc(N(C)C)c(C)c2nc1C
- mutagenic call [7]: inactive; negative
- mutagenic call (Test System: AMES SALMONELLA TYPHIMURIUM, Strain/Indicator: TA98, Metabolic Activation: RAT, LIVER, S-9, PCB, Method: PREINCUBATION): active; positive
- mutagenic call [8]: inactive; negative
- mutagenic call (Test System: AMES SALMONELLA TYPHIMURIUM, Strain/Indicator: TA100, Metabolic Activation: RAT, LIVER, S-9, PCB, Method: PREINCUBATION): active; positive

Compound: O=C(NO)c1ccc(O)c(O)c1
- mutagenic call (Test System: AMES SALMONELLA TYPHIMURIUM, Strain/Indicator: TA97, Metabolic Activation: NONE, Method: STANDARD PLATE): inactive; negative
- mutagenic call (Test System: AMES SALMONELLA TYPHIMURIUM, Strain/Indicator: TA97, Metabolic Activation: RAT, LIVER, S-9, DELOR 103, Method: STANDARD PLATE): active; positive
- mutagenic call [2]: inactive; negative
- mutagenic call (Test System: AMES SALMONELLA TYPHIMURIUM, Strain/Indicator: TA98, Metabolic Activation: RAT, LIVER, S-9, DELOR 103, Method: STANDARD PLATE): inactive; negative
- mutagenic call [1]: inactive; negative
- mutagenic call (Test System: AMES SALMONELLA TYPHIMURIUM, Strain/Indicator: TA100, Metabolic Activation: RAT, LIVER, S-9, DELOR 103, Method: STANDARD PLATE): inactive; negative
- mutagenic call [9]: inactive; negative
- mutagenic call (Test System: AMES SALMONELLA TYPHIMURIUM, Strain/Indicator: TA102, Metabolic Activation: RAT, LIVER, S-9, DELOR 103, Method: STANDARD PLATE): inactive; negative

Compound: Oc1cccc2sc3ccccc3c12
- mutagenic call (Test System: CHINESE HAMSTER OVARY, Strain/Indicator: CHO-K1-BH4 (HGPRT)/6-THIOGUANINE, Metabolic Activation: RAT, LIVER, S-9, AROCLOR (4%)): active; positive

Compound: COCC(=O)O
- mutagenic call (Test System: AMES SALMONELLA TYPHIMURIUM, Strain/Indicator: TA97A, Metabolic Activation: NONE, Method: STANDARD PLATE): inactive; negative
- mutagenic call (Test System: AMES SALMONELLA TYPHIMURIUM, Strain/Indicator: TA97A, Metabolic Activation: RAT, LIVER, S-9, AROCLOR 1254, Method: STANDARD PLATE): inactive; negative
- mutagenic call [2]: inactive; negative
- mutagenic call [3]: inactive; negative
- mutagenic call [1]: inactive; negative
- mutagenic call [4]: inactive; negative
- mutagenic call [9]: inactive; negative
- mutagenic call (Test System: AMES SALMONELLA TYPHIMURIUM, Strain/Indicator: TA102, Metabolic Activation: RAT, LIVER, S-9, AROCLOR 1254, Method: STANDARD PLATE): inactive; negative
- mutagenic call (Test System: CHINESE HAMSTER OVARY, Strain/Indicator: CHO AS52 (GPT)/6-THIOGUANINE, Metabolic Activation: NONE): inactive; negative
- mutagenic call (Test System: CHINESE HAMSTER OVARY, Strain/Indicator: CHO-K1-BH4 (HGPRT)/6-THIOGUANINE, Metabolic Activation: NONE): inactive; negative
- mutagenic call (Test System: CHINESE HAMSTER OVARY, Strain/Indicator: CHO-K1-BH4 (HGPRT)/6-THIOGUANINE, Metabolic Activation: RAT, LIVER, S-9, AROCLOR 1254): inactive; negative

Compound: O[C@H]1[C@@H]2O[C@@H]2C=C[C@@H]1O
- mutagenic call [7]: inactive; negative
- mutagenic call [8]: inactive; negative
- mutagenic call (Test System: AMES SALMONELLA TYPHIMURIUM, Strain/Indicator: TA1535, Metabolic Activation: NONE, Method: PREINCUBATION): active; positive

Compound: CNCC(O)c1ccc(O)c(O)c1 (stereo unspecified)
- mutagenic call [9]: inactive; negative
- mutagenic call (Test System: AMES SALMONELLA TYPHIMURIUM, Strain/Indicator: TA2638, Metabolic Activation: NONE, Method: STANDARD PLATE): inactive; negative
- mutagenic call (Test System: E. COLI, Strain/Indicator: WP2 (PKM101), Metabolic Activation: NONE, Method: STANDARD PLATE): inactive; negative
- mutagenic call (Test System: E. COLI, Strain/Indicator: WP2 UVRA (PKM101), Metabolic Activation: NONE, Method: STANDARD PLATE): inactive; negative

Compound: Clc1c2ccccc2cc2ccccc12
- mutagenic call [3]: active; positive
- mutagenic call [4]: active; positive

Compound: Cc1cc(=O)oc2c3c4c(cc12)CCCN4CCC3
- mutagenic call [5]: inactive; negative
- mutagenic call [6]: active; positive

Compound: NC(CO)C(=O)NNCc1ccc(O)c(O)c1O (stereo unspecified)
- mutagenic call [1]: active; positive
- mutagenic call (Test System: AMES SALMONELLA TYPHIMURIUM, Strain/Indicator: TA100, Metabolic Activation: RAT, LIVER, S-9, PHENOBARBITAL, Method: STANDARD PLATE): active; positive
- mutagenic call (Test System: UDS RAT HEPATOCYTES, Strain/Indicator: THY INCORP, Metabolic Activation: NONE, Method: AUTORADIOGRAPHY): inactive; negative

Compound: O=C1C=Cc2c(ccc3cc4ccccc4cc23)C1=O
- mutagenic call (Test System: AMES SALMONELLA TYPHIMURIUM, Strain/Indicator: TA97A, Metabolic Activation: NONE, Method: PREINCUBATION): inactive; negative
- mutagenic call [7]: inactive; negative
- mutagenic call [8]: inactive; negative
- mutagenic call (Test System: AMES SALMONELLA TYPHIMURIUM, Strain/Indicator: TA102, Metabolic Activation: NONE, Method: PREINCUBATION): inactive; negative
- mutagenic call (Test System: AMES SALMONELLA TYPHIMURIUM, Strain/Indicator: TA104, Metabolic Activation: NONE, Method: PREINCUBATION): inactive; negative

Compound: CCCCCC[C@@H](O)[C@@H]1C2=C(C[C@H]([C@H](O)[C@@H]3CC=CC(=O)O3)CC3=C(C(=O)OC3=O)[C@@H]1O)C(=O)OC2=O
- mutagenic call [8]: inactive; negative
- mutagenic call (Test System: AMES SALMONELLA TYPHIMURIUM, Strain/Indicator: TA100, Metabolic Activation: RAT, LIVER, S-9, PHENOBARBITAL, Method: PREINCUBATION): inactive; negative

Compound: c1ccc2cc3c(ccc4ccncc43)cc2c1
- mutagenic call [2]: inactive; negative
- mutagenic call [3]: active; positive
- mutagenic call [4]: active; positive
